The assay deals with LRRK2 (Homo sapiens (Human), UniProt Q5S007, G2019S). Nature of the assay: In Vitro LRRK2 LabChip Assay (LRRK2 Ki). Type of assay: biochemical. The procedure: In Vitro LRRK2 LabChip Assay
LRRK2, sequence (Q5S007 whole entry G2019S): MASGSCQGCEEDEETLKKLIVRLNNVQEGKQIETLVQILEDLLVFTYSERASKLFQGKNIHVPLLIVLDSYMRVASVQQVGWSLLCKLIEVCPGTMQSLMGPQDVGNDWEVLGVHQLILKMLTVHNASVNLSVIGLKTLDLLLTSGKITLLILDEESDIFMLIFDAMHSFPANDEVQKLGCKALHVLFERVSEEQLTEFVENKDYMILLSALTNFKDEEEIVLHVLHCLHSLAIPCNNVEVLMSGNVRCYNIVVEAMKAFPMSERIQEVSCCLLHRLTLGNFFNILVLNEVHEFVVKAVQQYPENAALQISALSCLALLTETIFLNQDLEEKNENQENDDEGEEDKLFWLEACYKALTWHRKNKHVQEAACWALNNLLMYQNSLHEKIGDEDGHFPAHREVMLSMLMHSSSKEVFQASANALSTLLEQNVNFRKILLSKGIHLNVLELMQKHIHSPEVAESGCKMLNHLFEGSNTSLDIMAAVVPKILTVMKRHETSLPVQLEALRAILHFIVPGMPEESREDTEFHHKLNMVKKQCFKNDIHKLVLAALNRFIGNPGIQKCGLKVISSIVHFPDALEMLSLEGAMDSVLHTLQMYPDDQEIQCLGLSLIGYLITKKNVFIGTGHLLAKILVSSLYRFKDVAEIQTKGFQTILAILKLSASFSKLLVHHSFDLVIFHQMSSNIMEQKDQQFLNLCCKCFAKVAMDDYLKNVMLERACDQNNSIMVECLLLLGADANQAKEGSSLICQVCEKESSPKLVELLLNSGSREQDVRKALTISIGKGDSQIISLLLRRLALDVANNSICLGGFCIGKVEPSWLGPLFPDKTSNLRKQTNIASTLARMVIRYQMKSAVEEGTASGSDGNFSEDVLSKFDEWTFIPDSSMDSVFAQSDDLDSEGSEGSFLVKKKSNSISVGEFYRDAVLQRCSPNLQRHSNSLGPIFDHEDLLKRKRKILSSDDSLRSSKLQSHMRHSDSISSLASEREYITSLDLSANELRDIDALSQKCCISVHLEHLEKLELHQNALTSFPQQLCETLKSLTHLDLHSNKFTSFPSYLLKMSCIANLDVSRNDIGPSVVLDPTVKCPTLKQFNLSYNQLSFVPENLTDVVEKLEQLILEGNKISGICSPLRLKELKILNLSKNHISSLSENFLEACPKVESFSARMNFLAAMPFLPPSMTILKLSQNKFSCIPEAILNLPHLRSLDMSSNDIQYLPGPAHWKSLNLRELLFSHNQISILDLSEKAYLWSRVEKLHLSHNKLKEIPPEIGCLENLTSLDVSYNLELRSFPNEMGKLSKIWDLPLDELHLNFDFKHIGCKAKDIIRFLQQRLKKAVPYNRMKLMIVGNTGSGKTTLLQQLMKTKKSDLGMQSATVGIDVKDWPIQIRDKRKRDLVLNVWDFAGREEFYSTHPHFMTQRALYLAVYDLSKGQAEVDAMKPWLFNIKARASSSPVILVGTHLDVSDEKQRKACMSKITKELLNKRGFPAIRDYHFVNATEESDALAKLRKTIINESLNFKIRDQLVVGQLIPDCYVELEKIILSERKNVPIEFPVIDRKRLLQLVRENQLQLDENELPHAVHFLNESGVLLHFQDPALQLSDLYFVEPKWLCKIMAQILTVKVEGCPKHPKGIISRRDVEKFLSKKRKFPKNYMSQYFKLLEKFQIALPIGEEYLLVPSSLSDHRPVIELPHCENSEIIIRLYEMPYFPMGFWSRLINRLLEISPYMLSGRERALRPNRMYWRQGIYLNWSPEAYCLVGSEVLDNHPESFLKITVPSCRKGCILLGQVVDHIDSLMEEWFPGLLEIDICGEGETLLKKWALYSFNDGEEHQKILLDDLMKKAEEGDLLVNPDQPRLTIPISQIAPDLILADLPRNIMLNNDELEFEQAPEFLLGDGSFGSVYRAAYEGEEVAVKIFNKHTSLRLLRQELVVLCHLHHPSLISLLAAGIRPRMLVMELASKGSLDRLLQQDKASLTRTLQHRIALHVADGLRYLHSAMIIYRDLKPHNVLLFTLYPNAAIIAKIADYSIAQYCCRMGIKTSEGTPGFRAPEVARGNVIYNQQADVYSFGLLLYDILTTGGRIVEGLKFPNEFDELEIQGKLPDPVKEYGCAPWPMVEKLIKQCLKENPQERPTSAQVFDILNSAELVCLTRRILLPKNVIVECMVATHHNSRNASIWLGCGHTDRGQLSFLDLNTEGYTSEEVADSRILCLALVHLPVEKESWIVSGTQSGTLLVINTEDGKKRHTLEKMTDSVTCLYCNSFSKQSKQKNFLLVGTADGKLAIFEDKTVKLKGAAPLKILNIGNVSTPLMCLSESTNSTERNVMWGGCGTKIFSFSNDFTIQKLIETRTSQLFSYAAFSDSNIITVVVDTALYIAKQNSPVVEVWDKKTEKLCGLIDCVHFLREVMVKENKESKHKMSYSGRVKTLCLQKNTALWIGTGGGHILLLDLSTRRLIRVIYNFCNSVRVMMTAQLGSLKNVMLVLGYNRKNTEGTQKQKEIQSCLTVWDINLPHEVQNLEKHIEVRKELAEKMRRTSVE
This assay was used to determine a compound's potency in inhibiting activity of LRRK2 by determining, Kiapp, IC50, or percent inhibition values. In a polypropylene plate, LRRK2, fluorescently-labeled peptide substrate, ATP and test compound were incubated together. Using a LabChip 3000 (Caliper Life Sciences), after the reaction the substrate was separated by capillary electrophoresis into two populations: phosphorylated and unphosphorylated. The relative amounts of each were quantitated by fluorescence intensity. LRRK2 Ki was determined according to the equation: Y=V0*(1−((x+Ki*(1+S/Km)+Et)/(2*Et)−(((x+Ki*(1+S/Km)+Et)^2−(4*Et*x))^0.5)/(2*Et))). Ki values in Table 4 and elsewhere herein are shown in μM.
Assay conditions and materials used were as follows:
LRRK2 Wild type in 5 mM MgCl2: 15 nM (Invitrogen lot #500607F)
Kinase reaction time: 2 hours
Wild type in 5 mM MgCl2: 80 μM
Kinase: LRRK2 G2019S (Invitrogen cat #PV4882). • LRRK2 Wild type (Invitrogen cat #PV4874).
Substrate: 5FAM-GAGRLGRDKYKTLRQIRQ-CONH2
Complete Reaction Buffer: H2O/25 mM Tris, pH 8.0/5 mM MgCl2/2 mM DTT/0.01% Triton X-100.
For serial dilutions, 34.6 μl DMSO was added to columns 3-24. For the assay controls, 37.5 μl DMSO was added to columns 1 and 2 of rows A and P. a,d and 50 μl 25 μM G-028831 (Staurosporine) was added to columns 1 and 2, row B. For the samples: to start at 100 μM, 37.5 μl DMSO was to columns 1 and 2, then 12.5 μl 10 mM compound; to start at 10 μM, 78 μl DMSO was added to columns 1 & 2, then 2 μl 10 mM compound; and to start at 1 μM, 25 μM compound (2 μl 10 mM cmpd+798 μl DMSO) was added to empty columns 1 and 2. A Precision instrument was used to perform 1:3.16 serial dilutions (“PLK_BM_serial_halflog”).
ATP was diluted to 282.1 μM in Complete Kinase Buffer (final concentration was 130 μM).
In Complete Reaction Buffer, substrate was diluted to 4 μM. Equal volumes of Complete Reaction Buffer and 4 μM substrate were combined to obtain the blank. Equal volumes of Complete Reaction Buffer and 4 μM substrate were combined and to the combined solution was added 2× final LRRK2 concentration.
To a 50 μl polypropylene plate, 5 μl/well buffer/substrate was added by hand to Blank wells. A Biomek FX was used to start the kinase reaction (“PLK SAR 23 ATP”). The following were added to the appropriate wells:
The plate was incubated for 2 hours in the dark. Biomek FX was used to stop the kinase reaction (“PLK Stop”), and 10 μl/well Stop solution was added to the Assay Plate.
Results were read on the LabChip 3000.
The LabChip 3000 was run using the job “LRRK2 IC50” with the following job settings: […]
Turning to `CNc1nc(Nc2cc3c(cc2Cl)c(C(=O)N2C[C@@H]4C[C@H]2CO4)cn3C)ncc1C(F)(F)F` [Compound 33, (1S,4S)-2-oxa-5-azabicyclo[2.2.1]heptan-5-yl(5-chloro-1-methyl-6-(4-(methylamino)-5-(trifluoromethyl)pyrimidin-2-ylamino)-1H-indol-3-yl)methanone], the affinity corresponds to a Ki of 3 nM.
Under `CCN1CCN(C(=O)c2cn(C)c3cc(Nc4ncc(C(F)(F)F)c(NC)n4)c(Cl)cc23)CC1` [Compound 32, (5-chloro-1-methyl-6-(4-(methylamino)-5-(trifluoromethyl)pyrimidin-2-ylamino)-1H-indol-3-yl)(4-ethylpiperazin-1-yl)methanone] stands 1 nM; under `CNc1nc(Nc2cc3c(cc2OC)CN(C)C3=O)ncc1C(F)(F)F` [Compound 7, 5-methoxy-2-methyl-6-(4-(methylamino)-5-(trifluoromethyl)pyrimidin-2-ylamino)isoindolin-1-one], 5 nM; under `CNc1nc(Nc2cc3c(cc2OC)C(=O)N(C2COC2)C3)ncc1C(F)(F)F` [Compound 25, 6-methoxy-5-(4-(methylamino)-5-(trifluoromethyl)pyrimidin-2-ylamino)-2-(oxetan-3-yl)isoindolin-1-one], 6 nM.

For the origin of these results see patent US8796296B2, “Aminopyrimidine derivatives as LRRK2 modulators” (Genentech, Inc., priority 2011, dated 2014).
